SMILES strings stand for the structures. Bounds are passed on as bounds.

Sequence of DNA (cytosine-5)-methyltransferase 1 (P26358 whole entry): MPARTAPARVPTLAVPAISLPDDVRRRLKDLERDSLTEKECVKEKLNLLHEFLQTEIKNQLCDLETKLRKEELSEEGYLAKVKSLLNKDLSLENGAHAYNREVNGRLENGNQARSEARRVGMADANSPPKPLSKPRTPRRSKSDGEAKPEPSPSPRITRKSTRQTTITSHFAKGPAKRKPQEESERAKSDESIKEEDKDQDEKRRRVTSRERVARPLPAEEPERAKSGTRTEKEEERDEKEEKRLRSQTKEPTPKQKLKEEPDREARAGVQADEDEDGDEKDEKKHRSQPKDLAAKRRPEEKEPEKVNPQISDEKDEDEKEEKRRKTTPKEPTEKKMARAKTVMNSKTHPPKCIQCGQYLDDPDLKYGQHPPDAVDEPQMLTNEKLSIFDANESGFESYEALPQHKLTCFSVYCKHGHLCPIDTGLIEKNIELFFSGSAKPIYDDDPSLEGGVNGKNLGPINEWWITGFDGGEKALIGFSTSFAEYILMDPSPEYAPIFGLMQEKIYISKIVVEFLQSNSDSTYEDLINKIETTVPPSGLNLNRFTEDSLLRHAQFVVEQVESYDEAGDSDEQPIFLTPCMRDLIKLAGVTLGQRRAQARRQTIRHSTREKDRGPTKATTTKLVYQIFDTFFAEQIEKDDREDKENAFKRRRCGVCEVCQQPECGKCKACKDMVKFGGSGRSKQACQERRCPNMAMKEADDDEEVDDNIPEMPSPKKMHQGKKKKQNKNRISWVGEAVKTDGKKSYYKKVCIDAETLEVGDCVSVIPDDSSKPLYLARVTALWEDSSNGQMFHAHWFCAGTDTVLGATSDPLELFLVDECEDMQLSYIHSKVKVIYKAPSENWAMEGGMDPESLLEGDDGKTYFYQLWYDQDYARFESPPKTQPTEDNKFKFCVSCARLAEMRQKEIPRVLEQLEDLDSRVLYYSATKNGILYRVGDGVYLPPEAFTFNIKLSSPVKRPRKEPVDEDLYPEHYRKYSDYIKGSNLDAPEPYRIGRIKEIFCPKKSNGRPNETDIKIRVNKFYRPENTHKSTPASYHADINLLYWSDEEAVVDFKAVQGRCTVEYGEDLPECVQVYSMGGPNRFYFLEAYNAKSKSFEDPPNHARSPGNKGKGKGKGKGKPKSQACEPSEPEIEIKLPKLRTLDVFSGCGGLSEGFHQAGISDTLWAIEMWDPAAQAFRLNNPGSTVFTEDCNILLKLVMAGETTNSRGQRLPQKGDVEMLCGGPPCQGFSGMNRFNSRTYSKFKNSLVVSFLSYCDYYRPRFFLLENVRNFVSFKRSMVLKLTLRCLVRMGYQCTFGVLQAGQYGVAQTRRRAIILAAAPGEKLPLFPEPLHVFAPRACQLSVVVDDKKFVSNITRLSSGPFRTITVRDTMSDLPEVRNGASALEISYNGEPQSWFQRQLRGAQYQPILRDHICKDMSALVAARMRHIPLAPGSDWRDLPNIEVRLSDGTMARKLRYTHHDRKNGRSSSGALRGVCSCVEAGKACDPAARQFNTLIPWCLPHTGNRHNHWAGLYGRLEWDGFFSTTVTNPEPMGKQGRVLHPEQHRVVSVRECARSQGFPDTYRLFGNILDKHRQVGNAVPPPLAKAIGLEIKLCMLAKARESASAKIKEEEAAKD

This assay addresses DNA (cytosine-5)-methyltransferase 1 (Homo sapiens, UniProt P26358). As to the kind of experiment: inhibition of DNA methylation by DNMT1 – biochemical, fluorescent molecular beacon, confirmation (AID 602386).
The IC50 is the midpoint of a concentration-inhibition curve. Higher therefore signals weaker potency. `CCOC1=CC(=Cc2c(-c3ccccc3)[nH]n(-c3nc(-c4ccc(Br)cc4)cs3)c2=O)C=CC1=O` showed an IC50 of 4.35 µM.
With `O=C1N=c2ccccc2=C1NNc1ccc(F)cc1` the figure was 19.3 µM; with `CCOc1ccc(CN=Nc2ccc(S(=O)(=O)Nc3ccccc3C(=O)O)cc2[N+](=O)[O-])cc1`, 5.78 µM.
With `CCCCn1c(NC(=S)Nc2ccccc2)nc2ccccc21` the figure was 1.02 µM; with `C=CCOc1ccc(CN=Nc2ccc(S(=O)(=O)Nc3ccccc3C(=O)O)cc2[N+](=O)[O-])cc1OC` [2-[[4-[2-[(3-methoxy-4-prop-2-enoxy-phenyl)methylidene]hydrazinyl]-3-nitro-phenyl]sulfonylamino]benzoic acid], 5.32 µM; with `COc1cc(NS(=O)(=O)c2ccc(NC(=S)NC(=O)c3sc4ccccc4c3Cl)cc2)nc(OC)n1` [3-chloranyl-N-[[4-[(2,6-dimethoxypyrimidin-4-yl)sulfamoyl]phenyl]carbamothioyl]-1-benzothiophene-2-carboxamide], 41 µM.
The value for `NC(=NNC=c1ccc(=C2C=CC(=O)C(C(=O)O)=C2)o1)N[N+](=O)[O-]` [5-(5-{2-[amino(nitroimino)methyl]carbonohydrazonoyl}-2-furyl)-2-hydroxybenzoic acid] was 3.94 µM.
Compound `Cc1[nH]n(-c2ccccc2)c(=O)c1C=C1NC(=S)NC1=O` [5-methyl-4-[(Z)-(5-oxo-2-sulfanylideneimidazolidin-4-ylidene)methyl]-2-phenyl-4H-pyrazol-3-one] showed a concentration for half-maximal inhibition (IC50) of 8.39 µM.
The value for `CC=CC=CC(=O)C1C(=O)[C@]2(C)C(=O)C(C)(O)[C@H]1[C@H]([C@]1(C)OC(=O)C(C)C1=O)[C@H]2C(=O)C=CC=CC` (stereo partly drawn) [(1S,4R,6E,7S,8R)-8-[(2E,4E)-hexa-2,4-dienoyl]-2-hydroxy-7-[(2S)-5-hydroxy-2,4-dimethyl-3-oxofuran-2-yl]-6-[(2E,4E)-1-hydroxyhexa-2,4-dienylidene]-2,4-dimethylbicyclo[2.2.2]octane-3,5-dione] was 5.25 µM; that for `COc1ccccc1N1CC=[N+](N[CH-]c2ccc(Cl)c([N+](=O)[O-])c2)CC1` [(E)-1-(4-chloro-3-nitrophenyl)-N-[4-(2-methoxyphenyl)piperazin-1-yl]methanimine] was more than 99 µM; that for `Cc1ccc(C(=O)N[n+]2cc(O)[c-](-c3nc(-c4cccc([N+](=O)[O-])c4)cs3)c2N)cc1` [MLS000391743] was more than 99 µM.
With `CCN(CC)CCOc1ccc2c(c1)C(N=O)c1cc(OCCN(CC)CC)ccc1-2` [MLS000518859] the figure was more than 99 µM; with `O=C(/C=C/c1ccco1)NCC(=O)NNC1=c2ccccc2=NC1=O` [MLS001075666], 3.25 µM.
`CSc1ccc(CN=Nc2ccc(S(=O)(=O)Nc3ccccc3C(=O)O)cc2[N+](=O)[O-])cc1` [MLS002245633] registered an IC50 of 3.26 µM.
With `COc1ccc(OC)c(-n2c(O)c3o[nH]c(-c4ccccc4Cl)c-3c2=O)c1` [SMR000046218] the figure was 4.35 µM; with `C=c1[nH]n(-c2cccc(C(=O)O)c2)c(=O)c1=CC=Cc1ccco1` [SMR000113614], 1.18 µM.
With `COc1ccc(C=c2c(=CSc3ccc(Cl)cc3)[nH]n(-c3nc4ccccc4s3)c2=O)cc1` [SMR000193462] the figure was 2.86 µM; with `NS(=O)(=O)c1ccc(NN=C2C=CC(=O)NC2=O)cc1` [SMR000528591], 7.65 µM; with `O=C(CSc1nc(O)cc(=O)[nH]1)Nc1ccccc1[N+](=O)[O-]` [SMR000620617], 8.51 µM.

The values are drawn from BindingDB's records for doi:10.7270/Q2NC5ZRN (Burnham Center For Chemical Genomics, 2012).
